d = 2'-deoxy (DNA); r = 2'-OH (RNA)

The test system of the data set is CHP212, SKNAS, SKNBE2 or CHLA90 neuroblastoma cells. Briefly: Tumor spheroid formation after siRNA transfection, low attachment plate (Example 11). Format: cell-based. The following applies: 96 hours following transfection, in cells with the highest degree of GPC2 mRNA knockdown (FIG. 6). The procedure:
The effect of GPC2 knockdown on tumor spheroid formation was assessed. CHP212, SKNAS, SKNBE2 or CHLA90 neuroblastoma cells were transfected with either a scrambled control siRNA or with a GPC2 siRNA of sequence 5 from Table 7 using the RNAiMAX Lipofectamine kit (Invitrogen, Carlsbad, Calif.), as previously described. Following transfection, cells were plated in a low attachment 96 well plate for spheroid formation while under siRNA treatment.

For the substance “GPC2 siRNA 5: siRNA duplex: sense CUCAGUAGCCCAGCACUCU[dT][dT] (SEQ ID NO: 211), anti-sense AGAGUGCUGGGCUACUGAG[dT][dT] (SEQ ID NO: 212) (sense CUCAGUAGCCCAGCACUCUTT; antisense AGAGUGCUGGGCUACUGAGTT; sugars from the 5' end r19 d2, backbone not given here; listed as Homo sapiens)”, the Tumor spheroid formation entry was “greatest inhibition in their ability to form spheroids”.
